Columns and labels:
Test in all cases: Test A pre-/postemergence plant response
Assay type in all cases: in vivo
[1] = tested on: pigweed (Amaranthus retroflexus)
Text: (§1) Seeds of barnyardgrass (Echinochloa crus-galli), large crabgrass (Digitaria sanguinalis), giant foxtail (Setaria faberii), morningglory (Ipomoea spp.), pigweed (Amaranthus retroflexus), velvetleaf (Abutilon theophrasti), wheat (Triticum aestivum) and corn (Zea mays) were planted into a blend of loam soil and sand and treated preemergence with a directed soil spray using test chemicals formulated in a non-phytotoxic solvent mixture which included a surfactant. At the same time these species were also treated with postemergence applications of test compounds formulated in the same manner.
(§2) Plants ranged in height from two to ten cm and were in the one- to two-leaf stage for the postemergence treatment. Treated plants and untreated controls were maintained in a greenhouse for approximately ten days, after which time all treated plants were compared to untreated controls and visually evaluated for injury. Plant response ratings, summarized in Table A, are based on a 0 to 100 scale where 0 is no effect and 100 is complete control. A dash (-) response means no test result.

[2] = tested on: corn (Zea mays)
Text: as §1, §2

[3] = tested on: wheat (Triticum aestivum)
Text: as §1, §2

[4] = tested on: large crabgrass (Digitaria sanguinalis)
Text: as §1, §2

[5] = tested on: giant foxtail (Setaria faberii)
Text: as §1, §2

[6] = tested on: morningglory (Ipomoea spp.)
Text: as §1, §2

[7] = tested on: barnyardgrass (Echinochloa crus-galli)
Text: as §1, §2

[8] = tested on: velvetleaf (Abutilon theophrasti)
Text: as §1, §2

[9] = Postemergence, 125 g ai/ha, 0 to 100 scale where 0 is no effect and 100 is complete control
[10] = Postemergence, 500 g ai/ha, 0 to 100 scale, 0 = no effect, 100 = complete control, approx. ten days
[11] = Preemergence, 125 g ai/ha, 0 to 100 scale, 0 = no effect, 100 = complete control
[12] = Preemergence, 500 g ai/ha, visual injury, 0 to 100 scale (0 no effect, 100 complete control), approx. ten days
[13] = Preemergence, 500 g ai/ha, 0 to 100 scale, 0 = no effect, 100 = complete control
[14] = Postemergence, 500 g ai/ha, visual injury, 0 to 100 scale (0 no effect, 100 complete control), approx. ten days

Row | SMILES | Plant response rating, Pigweed [1, 9] | Plant response rating, Pigweed [1, 10] | Plant response rating, Pigweed [1, 11] | Plant response rating, Pigweed [1, 12] | Plant response rating, Corn [2, 9] | Plant response rating, Corn [2, 10] | Plant response rating, Corn [2, 11] | Plant response rating, Wheat [3, 9] | Plant response rating, Wheat [3, 11] | Plant response rating, Wheat [3, 13] | Plant response rating, Crabgrass, Large [4, 9] | Plant response rating, Crabgrass, Large [4, 11] | Plant response rating, Foxtail, Giant [5, 9] | Plant response rating, Foxtail, Giant [5, 11] | Plant response rating, Morningglory [6, 9] | Plant response rating, Barnyardgrass [7, 9] | Plant response rating, Barnyardgrass [7, 11] | Plant response rating, Velvetleaf [8, 9] | Plant response rating, Velvetleaf [8, 11] | Plant response rating, Velvetleaf [8, 13] | also measured
1 | CCCn1c(-c2ccc3c(c2)OCCO3)ncc(C(=O)C2=C(O)CCCC2=O)c1=O [Compound 149] | 70 | 100 | 80 | 100 | 0 | 30 | 0 | 20 | 0 | 20 | 40 | 30 | 60 | 10 | 100 | 70 | 20 | 100 | 40 | 70 | Plant response rating, Corn [2, 12]: 20; Plant response rating, Wheat [3, 10]: 50; Plant response rating, Crabgrass, Large [4, 10]: 70; Plant response rating, Crabgrass, Large [4, 12]: 80; Plant response rating, Foxtail, Giant [5, 10]: 80; Plant response rating, Foxtail, Giant [5, 12]: 60; Plant response rating, Morningglory [6, 10]: 100; Plant response rating, Morningglory [6, 11]: 0; Plant response rating, Morningglory [6, 12]: 40; Plant response rating, Barnyardgrass [7, 10]: 90; Plant response rating, Barnyardgrass [7, 12]: 50; Plant response rating, Velvetleaf [8, 10]: 100
2 | CCCn1c(-c2ccc3ccccc3c2)ncc(C(=O)C2=C(O)CCCC2=O)c1=O [Compound 150] | 30 | 60 | 0 | 0 | 0 | 0 | 0 | 0 | 0 | 0 | 20 | 0 | 40 | 0 | 100 | 40 | 0 | 50 | 0 | 0 | Plant response rating, Corn [2, 12]: 0; Plant response rating, Wheat [3, 10]: 20; Plant response rating, Crabgrass, Large [4, 10]: 50; Plant response rating, Crabgrass, Large [4, 12]: 10; Plant response rating, Foxtail, Giant [5, 10]: 70; Plant response rating, Foxtail, Giant [5, 12]: 0; Plant response rating, Morningglory [6, 10]: 100; Plant response rating, Morningglory [6, 11]: 0; Plant response rating, Morningglory [6, 12]: 0; Plant response rating, Barnyardgrass [7, 10]: 80; Plant response rating, Barnyardgrass [7, 12]: 0; Plant response rating, Velvetleaf [8, 10]: 90
3 | O=C1CCCC(O)=C1C(=O)c1cnc(-c2ccccc2)n(C2CCCCCCCCCCC2)c1=O [Compound 165] | 80 |  | 0 |  | 0 |  | 0 | 0 | 0 | 0 | 20 | 0 | 20 | 0 | 50 | 0 | 0 | 100 | 0 | 0 | Pigweed plant response rating [1, 14]: 100; Plant response rating, Pigweed [1, 13]: 0; Corn plant response rating [2, 14]: 30; Plant response rating, Corn [2, 13]: 0; Wheat plant response rating [3, 14]: 0; Crabgrass, Large plant response rating [4, 14]: 50; Plant response rating, Crabgrass, Large [4, 13]: 0; Foxtail, Giant plant response rating [5, 14]: 30; Plant response rating, Foxtail, Giant [5, 13]: 0; Morningglory plant response rating [6, 14]: 100; Plant response rating, Morningglory [6, 13]: 0; Barnyardgrass plant response rating [7, 14]: 80; Plant response rating, Barnyardgrass [7, 13]: 0; Velvetleaf plant response rating [8, 14]: 100
